Entries after “also recorded” stand apart in the source; their conditions may differ.
Test system: rat intestinal motility
Experiment: Intestinal motility, Upper Gut Transit Test
Assay type: in vivo
Conditions: for antagonism of the constipating effect of the CB1 agonist WIN 55,212-2 / effect on the intestinal transit rate / intestinal portion run by the marker relative to the length run after physiological solution with Tween 80: i.p.; for intestinal portion run by the marker relative to the length run after physiological solution with Tween 80: compound alone
Description: To further evaluate the activity in vivo of the compounds (I) object of the present invention, functional tests were carried out to evaluate the effect of said compounds on the rat intestinal motility. It was indeed shown the involvement of the cannabinoidergic CB1 receptors in the intestinal motility regulation in rat (R. G. Pertwee et al; Br. J. Pharmacol.; 1996, 118, 2199-2205). In particular, the CB1 receptor agonists slacken the gastrointestinal motility; antagonist compounds of the same receptors have instead a prokinetic effect on the gastrointestinal transit (G. Colombo et al.; Eur. J. Pharmacol.; 1998, 344, 67-69; M. A. Casu et al.; Eur. J. Pharmacol.; 2003, 459, 97-105).
The evaluation of the constipating or prokinetic effect of the compounds was carried out by the Upper Gut Transit Test method on the basis of the procedure defined and ratified by Y. Nagakura et al.; Eur. J. Pharmacol.; 1996, 311, 67-72. The method, which allows to measure the motility of the stomach and of the first intestine tract (small or little intestine), implies: • the administration of the compound to be tested by i.p. route; • the administration of carmine red (marker not directly absorbable from the stomach) by intragastric route through a metal probe, after 20 minutes from the administration of the compound to be tested; • the rat sacrifice by cervical dislocation after a pre-fixed time (30 minutes) starting from the administration time; • the intestine explant from pylorus to the ileo-cecal valve; • the determination of the intestinal part crossed by the marker; • the data processing to determine the percentage of crossed part with respect to the total length of the small intestine.
With respect to the control (physiological solution or carrier wherein the compounds to be tested were solubilized or dispersed), the administration of CB1 agonist compounds implies a reduction of the intestinal transit percentage; an opposite effect is noticed in case of antagonist compounds. The latter are therefore capable to cancel the constipating effect of CB1 agonist compounds.
Each test was repeated on ten animals; the results reported in the Examples are the average of the results obtained with ten animals.

Compound | length run by the marker relative to physiological solution, WIN 55,212-2 preceded by the compound (WIN 55,212-2 0.5 mg/kg preceded by compound 0.5 mg/kg) | antagonism of the constipating effect of the CB1 agonist WIN 55,212-2 | effect on the intestinal transit rate | intestinal portion run by the marker relative to the length run after physiological solution with Tween 80 (0.5 mg of compound/kg) | intestinal portion run by the marker relative to the length run after physiological solution with Tween 80 (1.0 mg of compound/kg) | length run by the marker relative to physiological solution, WIN 55,212-2 preceded by the compound (WIN 55,212-2 0.5 mg/kg preceded by compound 1.0 mg/kg)
N-pyrrolidinyl-5-(5-Chloro-thiophen-2-yl)-1-(2,4′-dichloro-phenyl)-4-methyl-1H-pyrazol-3-carboxamide [Example 3.1d] | the same length | capable to antagonize the effect of a CB1 agonist | increase the intestinal transit rate | 1.61 times | 1.74 times | 
Cc1c(C(=O)NN2CCCCC2)nn(-c2ccc(Cl)cc2Cl)c1-c1ccc(Cl)s1 [Example 3.1b, N-piperidinyl-5-(5-Chloro-thiophen-2-yl)-1-(2′,4′-dichloro-phenyl)-4-methyl-1H-pyrazol-3-carboxamide] |  | capable to antagonize the effect of a CB1 agonist; also recorded: capable to antagonize the constipating effect of the CB1 agonist WIN 55,212-2 | increase the intestinal transit rate | 1.57 times | 1.76 times | the same length

— patent US8227620B2, “Pharmaceutical compounds” (Neuroscienze Pharmaness S.C. A.R.L., priority 2004, dated 2012)
